Laboratory results: PubChem BioAssay (NCI)
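1) Cells in 96-well plates. 2) Compound, 48 h, 5 concentrations. 3) Linear interpolation between surrounding doses. 4) Unreached endpoint = highest concentration. Definition used: TGI = concentration required for complete inhibition of growth.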

Key:
Experiment in all cases: growth of human tumour cells (NCI), 48 h
786-0 renal = test system: 786-0 renal
A549 NSCLC = test system: A549 NSCLC
ACHN renal = test system: ACHN renal
BT-549 breast = test system: BT-549 breast
CAKI-1 renal = test system: CAKI-1 renal
CCRF-CEM leukemia = test system: CCRF-CEM leukemia
COLO 205 colon = test system: COLO 205 colon
DU-145 prostate = test system: DU-145 prostate
EKVX NSCLC = test system: EKVX NSCLC
HCC-2998 colon = test system: HCC-2998 colon
HCT-116 colon = test system: HCT-116 colon
HCT-15 colon = test system: HCT-15 colon
HL-60(TB) leukemia = test system: HL-60(TB) leukemia
HOP-62 NSCLC = test system: HOP-62 NSCLC
HS 578T breast = test system: HS 578T breast
HT29 colon = test system: HT29 colon
IGROV1 ovarian = test system: IGROV1 ovarian
K-562 leukemia = test system: K-562 leukemia
KM12 colon = test system: KM12 colon
LOX IMVI melanoma = test system: LOX IMVI melanoma
M14 melanoma = test system: M14 melanoma
MALME-3M melanoma = test system: MALME-3M melanoma
MCF7 breast = test system: MCF7 breast
MDA-MB-231 breast = test system: MDA-MB-231 breast
MDA-MB-435 = test system: MDA-MB-435
MDA-N = test system: MDA-N
MOLT-4 leukemia = test system: MOLT-4 leukemia
NCI-H226 lung = test system: NCI-H226 lung
NCI-H23 lung = test system: NCI-H23 lung
NCI-H460 lung = test system: NCI-H460 lung
NCI-H522 lung = test system: NCI-H522 lung
NCI/ADR-RES ovarian = test system: NCI/ADR-RES ovarian
OVCAR-3 ovarian = test system: OVCAR-3 ovarian
OVCAR-4 ovarian = test system: OVCAR-4 ovarian
OVCAR-5 ovarian = test system: OVCAR-5 ovarian
OVCAR-8 ovarian = test system: OVCAR-8 ovarian
PC-3 prostate = test system: PC-3 prostate
RPMI-8226 leukemia = test system: RPMI-8226 leukemia
RXF 393 renal = test system: RXF 393 renal
SF-268 CNS = test system: SF-268 CNS
SF-295 CNS = test system: SF-295 CNS
SF-539 CNS = test system: SF-539 CNS
SK-MEL-2 melanoma = test system: SK-MEL-2 melanoma
SK-MEL-28 melanoma = test system: SK-MEL-28 melanoma
SK-MEL-5 melanoma = test system: SK-MEL-5 melanoma
SK-OV-3 ovarian = test system: SK-OV-3 ovarian
SN12C renal = test system: SN12C renal
SNB-19 CNS = test system: SNB-19 CNS
SNB-75 CNS = test system: SNB-75 CNS
SR leukemia = test system: SR leukemia
SW-620 colon = test system: SW-620 colon
T-47D breast = test system: T-47D breast
TK-10 renal = test system: TK-10 renal
U251 CNS = test system: U251 CNS
UACC-257 melanoma = test system: UACC-257 melanoma
UACC-62 melanoma = test system: UACC-62 melanoma
UO-31 renal = test system: UO-31 renal

Measured: TGI

CC(C)CC(C(N)=O)C(=O)NC(Cc1ccccc1)NC(=O)CNC(=O)C(C)NC(=O)C(N)Cc1ccc(O)cc1 (configuration not stated)
> 100 µM: 786-0 renal | A549 NSCLC | ACHN renal | BT-549 breast | CAKI-1 renal | CCRF-CEM leukemia | COLO 205 colon | DU-145 prostate | EKVX NSCLC | HCC-2998 colon | HCT-116 colon | HCT-15 colon | HL-60(TB) leukemia | HOP-62 NSCLC | HS 578T breast | HT29 colon | IGROV1 ovarian | K-562 leukemia | KM12 colon | LOX IMVI melanoma | M14 melanoma | MALME-3M melanoma | MCF7 breast | MDA-MB-231 breast | MDA-MB-435 | MDA-N | MOLT-4 leukemia | NCI-H226 lung | NCI-H23 lung | NCI-H460 lung | NCI-H522 lung | NCI/ADR-RES ovarian | OVCAR-3 ovarian | OVCAR-4 ovarian | OVCAR-5 ovarian | OVCAR-8 ovarian | PC-3 prostate | RPMI-8226 leukemia | RXF 393 renal | SF-268 CNS | SF-295 CNS | SF-539 CNS | SK-MEL-2 melanoma | SK-MEL-28 melanoma | SK-MEL-5 melanoma | SK-OV-3 ovarian | SN12C renal | SNB-19 CNS | SNB-75 CNS | SR leukemia | SW-620 colon | T-47D breast | TK-10 renal | U251 CNS | UACC-257 melanoma | UACC-62 melanoma | UO-31 renal
